Consider 1 compound from ChEMBL document CHEMBL3112529, “Synthesis of a C-phosphonate mimic of maltose-1-phosphate and inhibition studies on Mycobacterium tuberculosis GlgE” (Bioorg Med Chem, 2014).

This test addresses T1, Alpha-1,4-glucan:maltose-1-phosphate maltosyltransferase (Mycobacterium tuberculosis (strain ATCC 25618 / H37Rv), UniProt P9WQ17).
T1 sequence (P9WQ17 whole entry): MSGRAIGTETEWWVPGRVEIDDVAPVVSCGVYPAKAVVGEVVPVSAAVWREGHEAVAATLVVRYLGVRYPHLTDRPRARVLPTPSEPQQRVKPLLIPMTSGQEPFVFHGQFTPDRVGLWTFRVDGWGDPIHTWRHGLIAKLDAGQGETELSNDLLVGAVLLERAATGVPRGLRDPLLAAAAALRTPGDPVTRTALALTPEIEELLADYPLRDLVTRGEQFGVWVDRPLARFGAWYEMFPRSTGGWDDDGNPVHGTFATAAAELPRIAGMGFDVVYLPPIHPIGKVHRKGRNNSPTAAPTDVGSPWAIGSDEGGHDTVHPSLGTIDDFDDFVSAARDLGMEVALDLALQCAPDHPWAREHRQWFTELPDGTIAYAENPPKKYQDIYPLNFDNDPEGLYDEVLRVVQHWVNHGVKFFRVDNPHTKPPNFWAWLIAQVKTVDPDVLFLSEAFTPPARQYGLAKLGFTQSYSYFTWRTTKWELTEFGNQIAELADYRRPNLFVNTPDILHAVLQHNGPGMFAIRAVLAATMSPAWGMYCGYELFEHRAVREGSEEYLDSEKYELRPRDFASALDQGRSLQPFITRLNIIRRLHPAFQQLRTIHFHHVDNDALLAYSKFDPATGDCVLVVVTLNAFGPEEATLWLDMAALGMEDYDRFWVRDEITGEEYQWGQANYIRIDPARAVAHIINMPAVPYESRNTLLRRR
Description: Inhibition of recombinant Mycobacterium tuberculosis H37Rv GlgE expressed in Escherichia coli BL21 (DE3) rosetta cells using maltose-1-phosphate as substrate measured every 5 secs for 30 mins by purine nucleoside phosphorylase-coupled assay.

As a reminder, the IC50 is the point on the concentration scale where inhibition reaches its midpoint.

`O=P(O)(O)C[C@H]1O[C@H](CO)[C@@H](O[C@H]2O[C@H](CO)[C@@H](O)[C@H](O)[C@H]2O)[C@H](O)[C@H]1O`: the IC50 was 230 µM.
